{
  "source": "paper PMC12281142",
  "about": "“A potent phenylalkylamine disrupts mycobacterial membrane bioenergetics and augments bactericidal activity of bedaquiline” (iScience, 2025)",
  "key": {"[1]": {"test_system": "M. bovis BCG", "assay": "microbe, parasite or virus in culture", "assay_type": "cell-based, Mycobacterium bovis BCG"}, "[2]": {"test_system": "Mtb H37Rv", "assay": "MIC by broth microdilution against Mtb H37Rv", "assay_type": "cell-based, Mycobacterium tuberculosis", "conditions": "incubation 5 days; for MIC50 Mtb H37Rv: first value of cell MIC50/MIC90; for MIC90: second value of cell MIC50/MIC90, read-out: MIC90 Mtb H37Rv"}, "[3]": {"test_system": "Mab abscessus ATCC 19977", "assay": "MIC against Mab abscessus ATCC 19977", "assay_type": "cell-based, Mycobacterium abscessus subsp. abscessus", "conditions": "for MIC90: read-out: MIC90 Mab abscessus ATCC 19977; for MIC50 Mab abscessus ATCC 19977: 3 days"}, "[4]": {"test_system": "Mab massiliense CCUG 48898-T", "assay": "MIC against Mab massiliense CCUG 48898-T", "assay_type": "cell-based, Mycobacterium abscessus subsp. massiliense", "conditions": "for MIC50 Mab massiliense CCUG 48898-T: 3 days"}, "[5]": {"test_system": "Mab bolletii CCUG 50184-T", "assay": "MIC against Mab bolletii CCUG 50184-T", "assay_type": "cell-based, Mycobacterium abscessus subsp. bolletii", "conditions": "for MIC50 Mab bolletii CCUG 50184-T: 3 days"}, "[6]": {"test_system": "Vero E6", "assay": "Cytotoxicity in Vero E6 cells", "assay_type": "cell-based, African green monkey", "conditions": "48 h, growth suppressed by 50% vs untreated", "method": "(§1) To each well in a 96-well plate, 50,000 cells in 100 μL media were seeded. Vero E6 and HepG2 cells were incubated overnight in DMEM for cell adherence at 37°C and 5% CO2. The media was removed from the wells and 100 μL solution made up of fresh DMEM media (99 μL) and the test compound (1 μL from a DMSO stock solution that was […] more concentrated than the final concentration in the well) was then added to each well. DMSO content of each well was consistently kept at 0.5 %v/v. Treated plates were incubated for 48 h (5% CO2, 37°C), after which 10 μL of Celltitre 96 Aqueous One Solution was added to each well, without removal of media, and incubated for a further 3 h. Subsequently, absorbance readings were taken at 490 nm on a Tecan GENios Microplate Reader.\n(§2) Cell viability was determined from the expression: Cellviability(%)={[Absorbance(cells+cpd)−Absorbance(cpd)]/[Absorbance(cells+vc)−Absorbance(vc)]}×100% where Absorbance (cells + cpd) = absorbance of wells containing cells and test compound in vehicle (media +0.5% DMSO); Absorbance (cpd) = absorbance of wells containing test compound in vehicle without cells (compound control); Absorbance (cells + vc) = absorbance of wells containing cells in vehicle (vc) only (untreated cells); Absorbance (vc) = absorbance of wells containing vehicle without cells (vehicle control). The percentage viability readings were plotted against log(concentration) on GraphPad Prism (Version 7.0, San Diego, CA) to give a sigmoidal curve, from which IC50, defined as the concentration of the compound that reduced cell viability by 50%, was obtained. At least 3 separate determinations were carried out."}, "[7]": {"test_system": "HepG2", "assay": "Cytotoxicity in HepG2 cells", "assay_type": "cell-based, human", "conditions": "48 h, growth suppressed by 50% vs untreated", "method": "as §1, §2"}, "[8]": {"test_system": "clinical isolates of Mab", "assay": "MIC50 against Mab clinical isolates", "assay_type": "cell-based, Mycobacterium abscessus", "conditions": "range over isolates"}, "[9]": {"test_system": "M. bovis BCG", "assay_type": "cell-based, Mycobacterium bovis BCG"}, "[10]": {"conditions": "7H9 medium (first value of cell)"}, "[11]": {"conditions": "CA-MHB medium (second value of cell)"}},
  "note": "Read-outs that look alike come from different tables or passages of the source.",
  "data": [
    {"compound": "COc1ccc(CCN(C)CCCC(C#N)(CC=C(C)CCC=C(C)C)c2ccc(Cl)c(Cl)c2)cc1OC", "note": "(stereo not shown) [PhA13]", "values": [
      {"measurement": "MIC50", "setting": "[1]", "value": 12, "unit": "µM"},
      {"measurement": "MIC50 BCG With Glycerol", "setting": "[1]", "value": 12, "unit": "µM"},
      {"measurement": "MIC50 BCG Without Glycerol", "setting": "[1]", "value": 30, "unit": "µM"},
      {"measurement": "MIC90", "setting": "[1]", "value": 23, "unit": "µM"},
      {"measurement": "MIC90 (Table S1)", "setting": "[1]", "value": 23, "unit": "µM"},
      {"measurement": "MIC90 BCG", "setting": "[1]", "value": 13, "unit": "µg/mL"},
      {"measurement": "MIC50 Mtb H37Rv", "setting": "[2]", "value": 21, "unit": "µM"},
      {"measurement": "MIC90", "setting": "[2]", "value": 45, "unit": "µM"},
      {"measurement": "MIC90", "setting": "[3]; 7H9 broth (first value)", "value": "> 250", "unit": "µM"},
      {"measurement": "MIC50 Mab abscessus ATCC 19977", "setting": "[3]; [10]", "value": ">250/250 uM"},
      {"measurement": "MIC50 Mab abscessus ATCC 19977", "setting": "[3]; [11]", "value": ">250/250 uM"},
      {"measurement": "MIC90", "setting": "[3]; camH broth (second value)", "value": "> 250", "unit": "µM"},
      {"measurement": "MIC90", "setting": "[4]; 7H9 broth (first value)", "value": "> 250", "unit": "µM"},
      {"measurement": "MIC50 Mab massiliense CCUG 48898-T", "setting": "[4]; [10]", "value": "> 250", "unit": "µM"},
      {"measurement": "MIC50 Mab massiliense CCUG 48898-T", "setting": "[4]; [11]", "value": 23, "unit": "µM"},
      {"measurement": "MIC90", "setting": "[4]; camH broth (second value)", "value": "> 250", "unit": "µM"},
      {"measurement": "MIC90", "setting": "[5]; 7H9 broth (first value)", "value": "> 250", "unit": "µM"},
      {"measurement": "MIC90", "setting": "[5]; camH broth (second value)", "value": "> 250", "unit": "µM"},
      {"measurement": "IC50", "setting": "[6]", "value": 60, "unit": "µM"},
      {"measurement": "IC50", "setting": "[7]", "value": 42, "unit": "µM"}
    ]},
    {"compound": "COc1ccc(C(C#N)(CCCn2c(C)nc3ccccc32)C(C)C)cc1OC", "note": "(stereo not shown) [PhA17]", "values": [
      {"measurement": "MIC90 (Table S1)", "setting": "[1]", "value": "> 250", "unit": "µM"}
    ]},
    {"compound": "COc1ccc(CCN(C)CCCC(C#N)(Cc2cccc(Cl)c2)c2ccc(OC)c(OC)c2)cc1OC", "note": "(stereo not shown) [PhA6]", "values": [
      {"measurement": "MIC50", "setting": "[1]", "value": 17, "unit": "µM"},
      {"measurement": "MIC90", "setting": "[1]", "value": 45, "unit": "µM"},
      {"measurement": "MIC90 (Table S1)", "setting": "[1]", "value": 45, "unit": "µM"}
    ]},
    {"compound": "COc1ccc(C(C#N)(CCCn2c(N)nc3ccccc32)C(C)C)cc1OC", "note": "(stereo not shown) [PhA18]", "values": [
      {"measurement": "MIC90 (Table S1)", "setting": "[1]", "value": 155, "unit": "µM"}
    ]},
    {"compound": "carbonyl cyanide m-chlorophenyl hydrazine [CCCP, reference compound]", "values": [
      {"measurement": "MIC90", "setting": "[1]", "value": 50, "unit": "µM"},
      {"measurement": "MIC90 BCG", "setting": "[1]", "value": 10, "unit": "µg/mL"}
    ]},
    {"compound": "COc1ccc(CCN(C)CCCC(C#N)(c2ccc(Cl)c(Cl)c2)C(C)C)cc1OC", "note": "(stereo not shown) [PhA7]", "values": [
      {"measurement": "MIC50", "setting": "[1]", "value": 27, "unit": "µM"},
      {"measurement": "MIC90", "setting": "[1]", "value": 47, "unit": "µM"},
      {"measurement": "MIC90 (Table S1)", "setting": "[1]", "value": 47, "unit": "µM"}
    ]},
    {"compound": "COc1ccc(CCN(C)CCCC(C#N)(c2cc(OC)c(OC)c(OC)c2)C(C)C)cc1OC", "note": "(stereo not shown) [PhA52, gallopamil, reference compound]", "values": [
      {"measurement": "MIC90 (Table S1)", "setting": "[1]; M. bovis BCG, broth dilution", "value": "> 250", "unit": "µM"}
    ]},
    {"compound": "COc1ccc(C(C#N)(CCCN2CCN(c3cccc(O)c3)CC2)C(C)C)cc1OC", "note": "(stereo not shown) [PhA21]", "values": [
      {"measurement": "MIC90 (Table S1)", "setting": "[1]", "value": "> 250", "unit": "µM"}
    ]},
    {"compound": "COc1ccc(CCN(C)CCCC(C#N)(c2ccc(Cl)cc2)C2CCCCC2)cc1OC", "note": "(stereo not shown) [PhA14]", "values": [
      {"measurement": "MIC50", "setting": "[1]", "value": 19, "unit": "µM"},
      {"measurement": "MIC90", "setting": "[1]", "value": 35, "unit": "µM"},
      {"measurement": "MIC90 (Table S1)", "setting": "[1]", "value": 35, "unit": "µM"}
    ]},
    {"compound": "COc1ccc(CCN(C)CCCC(C#N)(C/C=C(\\C)CCC=C(C)C)c2ccc(OC)c(OC)c2)cc1OC", "note": "(racemic) [PhA3]", "values": [
      {"measurement": "MIC50", "setting": "[1]", "value": 11, "unit": "µM"},
      {"measurement": "MIC50 BCG With Glycerol", "setting": "[1]", "value": 11, "unit": "µM"},
      {"measurement": "MIC50 BCG Without Glycerol", "setting": "[1]", "value": 18, "unit": "µM"},
      {"measurement": "MIC90 (Table S1)", "setting": "[1]", "value": 22, "unit": "µM"},
      {"measurement": "MIC50 Mtb H37Rv", "setting": "[2]", "value": 19, "unit": "µM"},
      {"measurement": "MIC90", "setting": "[2]", "value": 42, "unit": "µM"},
      {"measurement": "MIC90", "setting": "[3]; 7H9 broth (first value)", "value": 104, "unit": "µM"},
      {"measurement": "MIC50 Mab abscessus ATCC 19977", "setting": "[3]; [10]", "value": 47, "unit": "µM"},
      {"measurement": "MIC50 Mab abscessus ATCC 19977", "setting": "[3]; [11]", "value": 17, "unit": "µM"},
      {"measurement": "MIC90", "setting": "[3]; camH broth (second value)", "value": 31, "unit": "µM"},
      {"measurement": "MIC90", "setting": "[4]; 7H9 broth (first value)", "value": 96, "unit": "µM"},
      {"measurement": "MIC50 Mab massiliense CCUG 48898-T", "setting": "[4]; [10]", "value": 42, "unit": "µM"},
      {"measurement": "MIC50 Mab massiliense CCUG 48898-T", "setting": "[4]; [11]", "value": 10, "unit": "µM"},
      {"measurement": "MIC90", "setting": "[4]; camH broth (second value)", "value": 56, "unit": "µM"},
      {"measurement": "MIC90", "setting": "[5]; 7H9 broth (first value)", "value": 98, "unit": "µM"},
      {"measurement": "MIC50 Mab bolletii CCUG 50184-T", "setting": "[5]; [10]", "value": 47, "unit": "µM"},
      {"measurement": "MIC50 Mab bolletii CCUG 50184-T", "setting": "[5]; [11]", "value": 13, "unit": "µM"},
      {"measurement": "MIC90", "setting": "[5]; camH broth (second value)", "value": 26, "unit": "µM"},
      {"measurement": "IC50", "setting": "[6]", "value": 27, "unit": "µM"},
      {"measurement": "IC50", "setting": "[7]", "value": 32, "unit": "µM"},
      {"measurement": "MIC50 seven Mab clinical isolates", "setting": "[8]", "value": "12 to 21", "unit": "µg/mL"},
      {"measurement": "CFUs above the detection limit", "setting": "[9]", "value": "10–100 times"}
    ]},
    {"compound": "COc1ccc(C(C#N)(CCCN2CCN(c3ccccc3OC)CC2)C(C)C)cc1OC", "note": "(stereo not shown) [PhA20]", "values": [
      {"measurement": "MIC90 (Table S1)", "setting": "[1]", "value": 163, "unit": "µM"}
    ]},
    {"compound": "COc1ccc(CCN(C)CCCC(C#N)(Cc2ccc(Br)cc2)c2ccc(OC)c(OC)c2)cc1OC", "note": "(stereo not shown) [PhA5]", "values": [
      {"measurement": "MIC50", "setting": "[1]", "value": 17, "unit": "µM"},
      {"measurement": "MIC90", "setting": "[1]", "value": 43, "unit": "µM"},
      {"measurement": "MIC90 (Table S1)", "setting": "[1]", "value": 43, "unit": "µM"}
    ]}
  ]
}
